Source: ChEMBL document CHEMBL1201862, “PubChem BioAssay data set” (2004)
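Step 1: Grow cells in 96-well plates. Step 2: Expose to compound for 48 hours at 5 concentrations. Step 3: Interpolate endpoints linearly; if unreached, use highest concentration. The concentration for 50% growth inhibition is given as GI50.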 Activity calls are given as the source filed them. Rule as the data show it: active = GI50 up to about 1.1 µM and inactive = higher.

Columns and labels:
Assay in all cases: NCI tumour cell line growth inhibition, 48 h
[1] = system: SK-MEL-28
[2] = system: HL-60
[3] = system: LOX IMVI
[4] = system: T47D
[5] = system: HOP-92
[6] = system: MCF7
[7] = system: HCT-116
[8] = system: SK-MEL-2
[9] = system: A498
[10] = system: NCI/ADR-RES
[11] = system: KM12
[12] = system: NCI-H522
[13] = system: HT-29
[14] = system: Hs-578T
[15] = system: OVCAR-5
[16] = system: PC-3
[17] = system: TK-10
[18] = system: SF-268
[19] = system: OVCAR-8
[20] = system: MDA-MB-231
[21] = system: OVCAR-3
[22] = system: UO-31
[23] = system: UACC-257
[24] = system: HCT-15
[25] = system: BT-549
[26] = system: MDA-MB-435
[27] = system: SNB-75
[28] = system: RPMI-8226
[29] = system: MDA-N
[30] = system: HOP-62
[31] = system: Malme-3M
[32] = system: CAKI-1
[33] = system: NCI-H23
[34] = system: NCI-H460
[35] = system: SR
[36] = system: MOLT-4
[37] = system: UACC-62
[38] = system: IGROV-1
[39] = system: HCC 2998
[40] = system: COLO 205
[41] = system: RXF 393
[42] = system: OVCAR-4
[43] = system: SF-295
[44] = system: K562
[45] = system: DU-145
[46] = system: SNB-19
[47] = system: M14
[48] = system: SK-OV-3
[49] = system: SW-620
[50] = system: EKVX
[51] = system: 786-0
[52] = system: ACHN
[53] = system: CCRF-CEM
[54] = system: A549
[55] = system: SK-MEL-5
[56] = system: U-251
[57] = system: SN12C
[58] = system: SF-539
[59] = system: NCI-H226

Structure (SMILES): O=C(CC(O)c1cccnc1)CC(O)c1cccnc1 (centres undefined)
- GI50 [1]: 19.5 µM (inactive)
- GI50 [2]: 3.17 µM (inactive)
- GI50 [3]: 5.18 µM (inactive)
- GI50 [4]: 26.5 µM (inactive)
- GI50 [5]: 17.4 µM (inactive)
- GI50 [6]: 4.34 µM (inactive)
- GI50 [7]: 2.04 µM (inactive)
- GI50 [8]: 18.9 µM (inactive)
- GI50 [9]: 15.9 µM (inactive)
- GI50 [10]: 24 µM (inactive)
- GI50 [11]: 11.1 µM (inactive)
- GI50 [12]: 13.4 µM (inactive)
- GI50 [13]: 7.05 µM (inactive)
- GI50 [14]: 28.4 µM (inactive)
- GI50 [15]: 24.2 µM (inactive)
- GI50 [16]: 15.8 µM (inactive)
- GI50 [17]: > 55.1 µM (inactive)
- GI50 [18]: 25.5 µM (inactive)
- GI50 [19]: 15.3 µM (inactive)
- GI50 [20]: 14.9 µM (inactive)
- GI50 [21]: 14.7 µM (inactive)
- GI50 [22]: 17.4 µM (inactive)
- GI50 [23]: 18.1 µM (inactive)
- GI50 [24]: 14.1 µM
- GI50 [25]: 11.7 µM (inactive)
- GI50 [26]: 16.4 µM (inactive)
- GI50 [27]: 14.5 µM (inactive)
- GI50 [28]: 3.29 µM (inactive)
- GI50 [29]: 7.26 µM (inactive)
- GI50 [30]: 21.9 µM (inactive)
- GI50 [31]: 18.4 µM (inactive)
- GI50 [32]: 17.7 µM (inactive)
- GI50 [33]: 22.5 µM (inactive)
- GI50 [34]: 19.7 µM (inactive)
- GI50 [35]: 2.78 µM (inactive)
- GI50 [36]: 3.49 µM (inactive)
- GI50 [37]: 16.6 µM (inactive)
- GI50 [38]: 14.8 µM (inactive)
- GI50 [39]: 3.82 µM (inactive)
- GI50 [40]: 14.1 µM (inactive)
- GI50 [41]: 16.7 µM (inactive)
- GI50 [42]: 20.7 µM (inactive)
- GI50 [43]: 15.4 µM (inactive)
- GI50 [44]: 2.75 µM (inactive)
- GI50 [45]: 32.2 µM (inactive)
- GI50 [46]: 21.7 µM (inactive)
- GI50 [47]: 14.2 µM (inactive)
- GI50 [48]: 17.5 µM (inactive)
- GI50 [49]: 4.97 µM (inactive)
- GI50 [50]: 20.9 µM (inactive)
- GI50 [51]: 16.3 µM (inactive)
- GI50 [52]: 17.8 µM (inactive)
- GI50 [53]: 3.02 µM (inactive)
- GI50 [54]: 20.6 µM (inactive)
- GI50 [55]: 16.1 µM (inactive)
- GI50 [56]: 16.5 µM (inactive)
- GI50 [57]: 18.6 µM (inactive)
- GI50 [58]: 21.2 µM (inactive)
- GI50 [59]: 45.7 µM (inactive)

Structure (SMILES): CCc1cc(Cc2cc(CC)c(NC(=O)C(=O)CC(=O)c3sc(-c4cccnc4)nc3C)c(CC)c2)cc(CC)c1NC(=O)C(=O)CC(=O)c1sc(-c2cccnc2)nc1C
- GI50 [1]: > 100 µM (inactive)
- GI50 [2]: > 100 µM (inactive)
- GI50 [3]: > 100 µM (inactive)
- GI50 [4]: > 100 µM (inactive)
- GI50 [5]: > 100 µM (inactive)
- GI50 [6]: > 100 µM (inactive)
- GI50 [7]: > 100 µM (inactive)
- GI50 [8]: > 100 µM (inactive)
- GI50 [9]: > 100 µM (inactive)
- GI50 [10]: > 100 µM (inactive)
- GI50 [11]: > 100 µM (inactive)
- GI50 [12]: > 100 µM (inactive)
- GI50 [13]: > 100 µM (inactive)
- GI50 [14]: > 100 µM (inactive)
- GI50 [15]: > 100 µM (inactive)
- GI50 [16]: > 100 µM (inactive)
- GI50 [18]: > 100 µM (inactive)
- GI50 [19]: > 100 µM (inactive)
- GI50 [20]: > 100 µM (inactive)
- GI50 [21]: > 100 µM (inactive)
- GI50 [22]: > 100 µM (inactive)
- GI50 [23]: > 100 µM (inactive)
- GI50 [24]: > 100 µM
- GI50 [25]: > 100 µM (inactive)
- GI50 [26]: > 100 µM (inactive)
- GI50 [27]: > 100 µM (inactive)
- GI50 [28]: > 100 µM (inactive)
- GI50 [29]: > 100 µM (inactive)
- GI50 [31]: > 100 µM (inactive)
- GI50 [32]: > 10 µM (inactive)
- GI50 [33]: > 100 µM (inactive)
- GI50 [34]: > 100 µM (inactive)
- GI50 [35]: > 10 µM (inactive)
- GI50 [36]: > 100 µM (inactive)
- GI50 [37]: > 100 µM (inactive)
- GI50 [38]: > 100 µM (inactive)
- GI50 [39]: > 100 µM (inactive)
- GI50 [40]: > 100 µM (inactive)
- GI50 [41]: > 100 µM (inactive)
- GI50 [42]: > 100 µM (inactive)
- GI50 [43]: 54.3 µM (inactive)
- GI50 [44]: > 100 µM (inactive)
- GI50 [45]: > 100 µM (inactive)
- GI50 [46]: > 100 µM (inactive)
- GI50 [47]: > 100 µM (inactive)
- GI50 [48]: > 100 µM (inactive)
- GI50 [49]: > 100 µM (inactive)
- GI50 [50]: > 100 µM (inactive)
- GI50 [51]: > 100 µM (inactive)
- GI50 [52]: > 100 µM (inactive)
- GI50 [53]: > 100 µM (inactive)
- GI50 [54]: > 100 µM (inactive)
- GI50 [55]: > 100 µM (inactive)
- GI50 [56]: > 100 µM (inactive)
- GI50 [57]: > 100 µM (inactive)
- GI50 [58]: > 100 µM (inactive)
- GI50 [59]: > 100 µM (inactive)

Structure (SMILES): CCOC(=O)c1cc(-c2ccc(OC)c(OC)c2)cn1C
- GI50 [1]: > 10 µM (inactive)
- GI50 [2]: > 10 µM (inactive)
- GI50 [3]: > 10 µM (inactive)
- GI50 [4]: > 10 µM (inactive)
- GI50 [5]: > 10 µM (inactive)
- GI50 [6]: > 10 µM (inactive)
- GI50 [7]: > 10 µM (inactive)
- GI50 [8]: > 10 µM (inactive)
- GI50 [9]: > 10 µM (inactive)
- GI50 [10]: > 10 µM (inactive)
- GI50 [11]: > 10 µM (inactive)
- GI50 [12]: > 10 µM (inactive)
- GI50 [13]: > 10 µM (inactive)
- GI50 [14]: 7.03 µM (inactive)
- GI50 [15]: > 10 µM (inactive)
- GI50 [16]: > 10 µM (inactive)
- GI50 [17]: > 10 µM (inactive)
- GI50 [18]: > 10 µM (inactive)
- GI50 [19]: > 10 µM (inactive)
- GI50 [20]: > 10 µM (inactive)
- GI50 [21]: > 10 µM (inactive)
- GI50 [22]: > 10 µM (inactive)
- GI50 [23]: > 10 µM (inactive)
- GI50 [24]: > 10 µM
- GI50 [25]: > 10 µM (inactive)
- GI50 [26]: > 10 µM (inactive)
- GI50 [27]: 4.43 µM (inactive)
- GI50 [28]: > 10 µM (inactive)
- GI50 [29]: > 10 µM (inactive)
- GI50 [30]: > 10 µM (inactive)
- GI50 [31]: > 10 µM (inactive)
- GI50 [32]: > 10 µM (inactive)
- GI50 [33]: > 10 µM (inactive)
- GI50 [34]: > 10 µM (inactive)
- GI50 [35]: > 10 µM (inactive)
- GI50 [36]: > 10 µM (inactive)
- GI50 [37]: > 10 µM (inactive)
- GI50 [38]: > 10 µM (inactive)
- GI50 [39]: > 10 µM (inactive)
- GI50 [40]: > 10 µM (inactive)
- GI50 [41]: > 10 µM (inactive)
- GI50 [42]: > 10 µM (inactive)
- GI50 [43]: > 10 µM (inactive)
- GI50 [44]: > 10 µM (inactive)
- GI50 [45]: > 10 µM (inactive)
- GI50 [46]: > 10 µM (inactive)
- GI50 [47]: > 10 µM (inactive)
- GI50 [48]: > 10 µM (inactive)
- GI50 [50]: > 10 µM (inactive)
- GI50 [51]: > 10 µM (inactive)
- GI50 [52]: > 10 µM (inactive)
- GI50 [53]: > 10 µM (inactive)
- GI50 [54]: > 10 µM (inactive)
- GI50 [55]: > 10 µM (inactive)
- GI50 [56]: > 10 µM (inactive)
- GI50 [57]: > 10 µM (inactive)
- GI50 [58]: > 10 µM (inactive)
- GI50 [59]: > 10 µM (inactive)
